Data on two substances can be found in article PMC10644971 (Bioconjugate chemistry, 2023).

For test [1] the following is noted: ref Erazo-Oliveras et al., Nat Methods 2014, 11, 861-867; cited from earlier work.
The conditions of test [2]: ref Erazo-Oliveras et al., Cell Chem Biol 2016, 23, 598-607; cited from earlier work.
Test [3] addresses 3 (disulfide-linked dimer of fTAT-ST) (HIV). Briefly: covalent SnoopTag/SnoopCatcher ligation followed by SDS-PAGE (in-gel fluorescence, Coomassie) and MALDI-TOF mass spectrometry; SC (40 μM) reacted with 2 (10 μM), or SC (80 μM) with 3 (10 μM), for 1 hour in TBS (20 mM Tris, 150 mM NaCl, pH 7.4); covalent isopeptide bond; products purified by cation exchange chromatography.
In test [4] the target is dfTAT-ST (2) (HIV). The test is described as above.

Regarding “CK(TMR)RKKRRQRRR [fTAT, reference compound]”, the “endosomal escape of the monomeric form” value in test [1] is “does not mediate detectable endosomal escape”. The “leakage of liposomes mimicking the lipid composition of late endosomes” value in test [2] is given as “does not cause leakage”.
One may read the stoichiometry N as the number of molecules, sites or subunits per partner or assembly. In the case of SnoopCatcher (SC) (designed binder), the stoichiometry N in test [3] was 2 copies; in test [4], 1 copies.
